Data set [1] can be described thus: Discoloration of the dental composition upon storage. It is filed as physicochemical. Particulars: storage at 50° C. for 30 days. From the text: Discoloration upon storage and/or during photocuring may be determined according to ISO 7491:2000(en).
Data set [2] is described as follows: Solubility of the compounds in tested solvents. It is filed as physicochemical. Further details: key to solubility: “−” means NO solubility; “++” means VERY GOOD solubility.
Data set [3] in a line: Refractive index (RI) measured at 20° C. It is filed as physicochemical. The protocol: (§1) (nD^20) and viscosity n measured at 23° C. (η23° C.) for compounds of formula (I) according to the invention denoted as (Ib) and (Ic), and comparative compounds (C1), (C2) and (C3). Compound (Ib) is N,N′-bisacryloyl-N,N′-bisallyl-[…], and compound (Ic) is N,N′-bisacryloyl-N,N′-bispropyl-1,4-but-2-endiamine. Comparative compound (C1) is N,N′-bisacetyl-N,N′-bisallyl-1,4-but-2-endiamine, (C2) is N,N′-bisacryloyl-N,N′-bisallyl-1,4-butandiamine, and C(3) is N,N′-bisacryloyl-N,N′-bispropyl-1,4-butandiamine. In FIG. 1, RI is depicted by dark grey bars, and the viscosity η by light grey hatched bars. For comparative compound (C1), no viscosity η was determined (indicated by “*”), since this compound is a solid.

The nature of data set [4]: Viscosity measured at 23° C. It is filed as physicochemical. Conditions: viscosity at 23° C. The protocol: as §1
The mark [5] stands for this setting: refractive index at 20° C., tables.
Where [6] appears, read: refractive index, preparative examples.

Each structure is given as a SMILES string.

The melting point is the temperature of the solid-liquid transition.

As for `CC(C)(C)c1cc(O)c(C(C)(C)C)cc1O` [DTBHQ], in data set [1], the “discoloration of the dental composition upon storage” value was “no or almost no discoloration”.

As for `C=CCN(C/C=C/CN(CC=C)C(=O)C=C)C(=O)C=C` [(Ia)], the solubility result in data set [2] (EtOH) was “++”; in data set [2] (acetone) it was “++***)”; in data set [2] (iPrOH), “++”; in data set [2] (methacrylic acid), “++”; in data set [2] (water), “−**^)”. In data set [3] (setting [5]), the “nD^20” value worked out at 1.5290. Also, in data set [4] (tables), the “η23° C.” value stood at 338.0 mPa · s.

As for `C=CC(=O)N(C/C=C/CN(CCC)C(=O)C=C)CCC` [(Ic), N,N′-Bisacryloyl-N,N′-bispropyl-1,4-but-2-endiamine], the solubility result is recorded as “++” in data set [2] (EtOH); “++” in data set [2] (acetone); “++” in data set [2] (iPrOH); “++” in data set [2] (methacrylic acid); “−” in data set [2] (water). In addition, the “nD^20” value in data set [3] (setting [5]) and in data set [3] (setting [6]) was 1.5095 each time. For the same compound, the figures for the “η23° C.” value in data set [4] (preparative examples) and in data set [4] (tables) were 428±3 Pa*s and 427.5 mPa · s, respectively.

On to `C=CC(=O)N(CCC)CCCCN(CCC)C(=O)C=C` [(C3), N,N′-Bisacryloyl-N,N′-bispropyl-1,4-butandiamine], for which the solubility entry was “++” in data set [2] (EtOH); “++” in data set [2] (acetone); “++” in data set [2] (iPrOH); “++” in data set [2] (methacrylic acid); “−” in data set [2] (water). In addition, the “nD^20” value in data set [3] (setting [5]) was 1.5150; in data set [3] (setting [6]), 1.515. Further, the “η23° C.” value in data set [4] (preparative examples) is listed as 486±1 Pa*s; in data set [4] (tables), 485.5 mPa · s.

In the case of `C=CCN(CCCCN(CC=C)C(=O)C=C)C(=O)C=C` [(C2), N,N′-Bisacryloyl-N,N′-bisallyl-1,4-butandiamine], the solubility entry in data set [2] (EtOH) is “−”; in data set [2] (acetone), “++”; in data set [2] (iPrOH), “−”; in data set [2] (methacrylic acid), “++”; in data set [2] (water) it was “−”; in data set [2] (water/alcohol), “−”. For the same compound, the solubility in alcohols result in data set [2] (alcohols like ethanol or isopropanol) is reported as “not soluble”. The “nD^20” value is 1.5150 in data set [3] (setting [5]) and 1.515 in data set [3] (setting [6]). In data set [4] (tables), the “η23° C.” value was found to be 382.0 mPa · s.

Turning to `C=CCN(C/C=C/C(C)N(CC=C)C(=O)C=C)C(=O)C=C` (stereo not drawn) [Compound (Ib)], the solubility result is listed as “++” in data set [2] (EtOH); “++” in data set [2] (acetone); “++” in data set [2] (iPrOH); “++” in data set [2] (methacrylic acid); “−” in data set [2] (water). The results for the “nD^20” value in data set [3] (setting [5]) and in data set [3] (setting [6]) were 1.5260 and 1.526, respectively. Also, in data set [4] (tables), the “η23° C.” value is on record as 409.0 mPa · s.

Regarding `C=CCN(C/C=C/CN(CC=C)C(C)=O)C(C)=O` [(C1), N,N′-Bisacetyl-N,N′-bisallyl-1,4-but-2-endiamine], the melting point stood at 32 °C. Also, the solubility result in data set [2] (EtOH) is reported as “++”. In addition, in data set [2] (acetone), the solubility result was “++”. For the same compound, in data set [2] (iPrOH), the solubility result is given as “++”. Moreover, the solubility entry in data set [2] (methacrylic acid) is reported as “++”. The solubility entry in data set [2] (water) is on record as “−”. Moreover, the “nD^20” value in data set [3] (setting [6]) came out at 1.505.
